Reference: patent US20240059693A1, “FUSED BICYCLIC PYRAZOLE DERIVATIVES AND METHODS OF USE THEREOF FOR THE TREATMENT OF HERPESVIRUSES” (Merck Sharp & Dohme LLC, priority 2020, published 2024)
Where two headings read alike, the source gives them in different places.

Assays:
[1] = target: T1, Human cytomegalovirus DNA polymerase (Human cytomegalovirus, UniProt P08546); assay: HCMV polymerase assay (AlphaLISA); type: biochemical; settings: HCMV DNA polymerase 0.2 nM, 60 minutes at 37° C.; read-out: CMV (IC50)
T1 construct: made in house; host or cells: SF21 insect cells (baculovirus vector)
T1 sequence (P08546 whole entry): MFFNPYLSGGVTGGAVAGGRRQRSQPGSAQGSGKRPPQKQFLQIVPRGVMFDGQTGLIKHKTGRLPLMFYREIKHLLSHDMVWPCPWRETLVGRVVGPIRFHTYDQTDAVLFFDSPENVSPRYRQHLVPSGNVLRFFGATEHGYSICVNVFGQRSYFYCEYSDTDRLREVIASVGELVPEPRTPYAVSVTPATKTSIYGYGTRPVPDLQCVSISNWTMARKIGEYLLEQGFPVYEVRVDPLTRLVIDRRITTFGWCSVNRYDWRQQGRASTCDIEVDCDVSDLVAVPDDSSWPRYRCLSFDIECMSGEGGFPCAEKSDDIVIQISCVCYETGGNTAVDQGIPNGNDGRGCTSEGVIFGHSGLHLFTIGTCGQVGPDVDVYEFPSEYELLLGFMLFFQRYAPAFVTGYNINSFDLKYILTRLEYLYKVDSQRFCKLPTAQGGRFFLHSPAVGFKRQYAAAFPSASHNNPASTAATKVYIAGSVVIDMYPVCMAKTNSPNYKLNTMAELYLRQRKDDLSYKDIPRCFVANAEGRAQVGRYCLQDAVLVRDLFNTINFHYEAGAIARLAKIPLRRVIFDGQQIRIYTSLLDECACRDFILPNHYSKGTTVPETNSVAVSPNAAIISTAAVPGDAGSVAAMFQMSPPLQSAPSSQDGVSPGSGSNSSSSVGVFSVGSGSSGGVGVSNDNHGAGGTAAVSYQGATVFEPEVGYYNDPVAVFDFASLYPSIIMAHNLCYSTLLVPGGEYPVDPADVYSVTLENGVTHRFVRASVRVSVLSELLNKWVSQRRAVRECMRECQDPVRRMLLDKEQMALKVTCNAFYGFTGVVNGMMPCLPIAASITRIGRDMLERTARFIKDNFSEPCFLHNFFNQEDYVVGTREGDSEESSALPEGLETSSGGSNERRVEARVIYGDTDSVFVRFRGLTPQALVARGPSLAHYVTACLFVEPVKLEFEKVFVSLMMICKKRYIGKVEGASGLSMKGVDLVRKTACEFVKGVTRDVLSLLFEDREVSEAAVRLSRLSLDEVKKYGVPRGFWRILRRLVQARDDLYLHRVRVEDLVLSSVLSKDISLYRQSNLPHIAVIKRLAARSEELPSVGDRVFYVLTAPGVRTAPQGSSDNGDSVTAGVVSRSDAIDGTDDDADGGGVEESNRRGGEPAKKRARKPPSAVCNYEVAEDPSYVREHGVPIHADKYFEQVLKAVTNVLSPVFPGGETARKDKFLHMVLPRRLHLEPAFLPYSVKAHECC
Protocol: Human cytomegalovirus and varicella zoster virus DNA polymerases were expressed via baculovirus vector in SF21 cells and purified. Heterodimeric nucleic acid substrate used in the herpesvirus polymerase reactions was generated by annealing a 59-mer template to a 17-mer digoxigenin-labeled primer. Polymerase (HCMV final concentration of 0.2 nM; VZV final concentration of 0.4 nM) was combined with an inhibitor compound or DMSO in assay buffer (10 mM HEPES, pH 7.5, 25 mM KCl, 25 mM NaCl, 5 mM MgCl2, 5% glycerol, 0.67 mg/ml bovine serum albuminutes, and 1 mM tris(2-carboxyethyl)phosphine), and this mixture was pre-incubated for 30 minutes at room temperature in 384-well microtiter plates. The polymerization reaction was initiated by the addition of template/primer substrate (final concentration: 1.6 nM), and dNTPs (final concentration: 24 nM dCTP, 24 nMdGTP, 16 nM dATP, 16 nM dTTP, and 0.8 nM biotin-dUTP). After 60 minutes incubation at 37° C., reactions were terminated with quench buffer (25 mM HEPES pH 7.5, 100 mM NaCl, 0.25% Tween-20, 12 mM EDTA, and 1 mg/ml bovine serum albumin). Incorporation of biotinylated UTP was detected with 2.5-ug/ml anti-DIG AlphaLISA acceptor beads and 5-10 ug/ml streptavidin AlphaLISA donor beads (Perkin Elmer). Compound effects were normalized to the window defined by the controls (DMSO only and pre-quenched wells) and were fit using a 4-parameter algorithm to report an IC50.

HCMV Strain AD169 = assay: Viral qPCR assay, HCMV in MRC-5 cells; type: cell-based, Human cytomegalovirus; settings: read-out: CMV MRC5 Cell (EC50)
Protocol: (§1) MRCS cells, Vero cells, and MeWo cells were obtained from ATCC and were maintained at 37° C./5% CO2/90% relative humidity in Minimal Essential Medium with 10% fetal bovine serum, […] L-glutamine, 100 units/ml penicillin and 100 ug/ml streptomycin. Assay plates were prepared by dispensing compounds dissolved in DMSO into wells of 384 well collagen-coated plates using an ECHO acoustic dispenser. Each compound was tested in a 10-point, serial 3-fold dilution. Controls included uninfected cells and infected cells treated only with DMSO. Assays were initiated by mixing selected cells, in suspension, with virus, and dispensing 50 μl/well infected cells to pre-plated compounds. Plates were incubated at 37° C./5% CO2/90% relative humidity for ˜72 hrs to permit genomic replication, and infected cells were lysed by the addition of an equal volume of lysis buffer (10 mM Tris-HCl, pH8, 50 mM KCl, 2 mM MgCl2, 0.45% NP-40, 0.45% Tween-20, and 100 μg/ml proteinase K). An aliquot of the lysate was transferred to a 384-well PCR plate and incubated at 56° C. for 1 hour and then at 95° C. for 10 min. Levels of a viral gene and of the cellular control, PPIA (Thermo Fisher Assay ID=Hs04194521_s1), were measured in separate 10 μL qPCR assays using TaqMan® Gene Expression Master Mix (Applied Biosystems), and an 7900HT Fast Real-Time PCR System with 384-Well Block Module. 7-point, serial 10-fold dilutions of a plasmid standard were run on each plate to generate a standard curve, and genome copies numbers were calculated by plotting experimental Ct onto linear regression of the standard curve. Viral genome copy numbers were normalized by cellular control copy number, and compound effects were normalized to the window defined by the controls. Calculated % effects were fit using a 4-parameter algorithm, and EC50 was reported.
as §1, with “gene” for “gene and of the cellular control, PPIA (Thermo Fisher Assay ID=Hs04194521_s1),”, “in” for “in separate”, “Compound effects on viral” for “Viral”, “number” for “numbers were normalized by cellular control copy number, and compound effects”
HCMV: Strain AD169 Street was assayed in MRC-5 cells and was used at 0.05-0.1 pfu/cell. The assays were performed in either growth media or in the same media with 50% fetal bovine serum. Primer-probe set was Thermo Fisher Assay ID=AIFATFK.

HSV2 = assay: Viral qPCR assay, HSV2 in MRC5 cells; type: cell-based, Herpes Simplex Virus type 2; settings: read-out: HSV2 MRC5 Cell (EC50)
Protocol: as §1
as §1, with “gene” for “gene and of the cellular control, PPIA (Thermo Fisher Assay ID=Hs04194521_s1),”, “in” for “in separate”, “Compound effects on viral” for “Viral”, “number” for “numbers were normalized by cellular control copy number, and compound effects”

VZV = assay: Viral qPCR assay, VZV in MRC5 cells; type: cell-based, varicella zoster virus; settings: read-out: VZV MRC5 Cell (IC50)
Protocol: as §1
as §1, with “gene” for “gene and of the cellular control, PPIA (Thermo Fisher Assay ID=Hs04194521_s1),”, “in” for “in separate”, “Compound effects on viral” for “Viral”, “number” for “numbers were normalized by cellular control copy number, and compound effects”
(§2) VZV: Strain Street was maintained as an infected cell stock in MRC-5 cells. It was assayed in MeWo or MRCS cells and was used at 0.04-0.1 pfu/cell. The assays were performed in growth medium. Primer-probe set was Thermo Fisher Assay ID=AIPAEXQ. HSV-1: Strain F Street was assayed in Vero or MRCS cells and was used at 0.0005-0.004 pfu/cell in growth medium. Primer-probe set was Thermo Fisher Assay ID=AIBJZIB

HSV-1 Strain F = assay: Viral qPCR assay, HSV-1 in MRC5 cells; type: cell-based, Herpes Simplex Virus type 1; settings: read-out: HSV1 MRC5 Cell (EC50)
Protocol: as §1
as §1, with “gene” for “gene and of the cellular control, PPIA (Thermo Fisher Assay ID=Hs04194521_s1),”, “in” for “in separate”, “Compound effects on viral” for “Viral”, “number” for “numbers were normalized by cellular control copy number, and compound effects”
as §2

[2] = Human alphaherpesvirus 2, MRC5, 72 h
[3] = Human alphaherpesvirus 3, MRC5, 72 h
[4] = Human alphaherpesvirus 1, MRC5, 72 h
[5] = Human betaherpesvirus 5, AD169, MRC5, 72 h

Row | SMILES | IC50 [1] [nM] | EC50 (HCMV Strain AD169; MRC5 cells, ~72 hrs) [nM] | EC50 (HSV2; ~72 hrs) [nM] | IC50 (VZV; ~72 hrs) [nM] | EC50 (HSV-1 Strain F; ~72 hrs) [nM] | EC50 (HSV2; [2]) [nM] | IC50 (VZV; [3]) [nM] | EC50 (HSV-1 Strain F; [4]) [nM] | EC50 (HCMV Strain AD169; [5]) [nM]
1 | CC(C1CCC(=O)N1)N1Cc2c(C(=O)NCc3ccc(Cl)cc3)nn(C)c2C1 (single isomer, unassigned) [Compound 1] | 235 | 4480 | 6740 | 7530 | 9980 |  |  |  | 
2 | O=C1CC[C@H](CN2Cc3c(C(=O)NCc4ccc(Cl)cc4)nn(C4CCOC4)c3C2)N1 (single isomer, unassigned) [Compound 33] | 52.5 | 628 | 1410 | 1960 | 1560 |  |  |  | 
3 | O=C1CC[C@H](CN2Cc3c(C(=O)NCc4ccc(Cl)cc4)nn(C4CCOC4)c3C2)N1 (single isomer, unassigned) [Compound 34] | 51.6 | 1800 | 1850 | 2050 | 790 |  |  |  | 
4 | O=C1CC[C@@H](CN2Cc3c(C(=O)NCc4ccc(Cl)cc4)nn(C4CCOC4)c3C2)N1 (single isomer, unassigned) [Compound 43] | 58.2 | 3290 |  |  |  | 3490 | 2640 | 3550 | 
5 | CC(=O)OCC1c2c(c(C(=O)NCc3ccc(Cl)cc3)nn2C)CN1CC1CCC(=O)N1 (single isomer, unassigned) [Compound 120] | 121 | 642 | 2020 | 1780 | 2740 |  |  |  | 
6 | CC([C@@H]1CCC(=O)N1)N1Cc2c(C(=O)NCc3ccc(Cl)cc3)nn(C(F)F)c2C1 (some centres unmarked) [Compound 71] | 76.2 |  | 1080 | 1210 | 2080 |  |  |  | 
7 | Cn1nc(C(=O)NCc2ccc(Cl)cc2)c2c1CN(CC1CCC(=O)N1)C2 (centres unmarked) [Compound 88] | 13300 | 33000 |  |  |  |  |  |  | 
8 | CCC(C1CCC(=O)N1)N1Cc2c(C(=O)NCc3ccc(Cl)cc3)nn(C)c2C1 (centres unmarked) [Compound 91] | 8610 | 99000 |  |  |  |  |  |  | 
9 | CCC(C1CCC(=O)N1)N1Cc2c(C(=O)NCc3ccc(Cl)cc3)nn(C)c2C1 (centres unmarked) [Compound 92] | 1180 | 65900 |  |  |  |  |  |  | 
10 | C=CC[C@]1(CN2Cc3c(C(=O)NCc4ccc(Cl)cc4)nn(C)c3C2)CCC(=O)N1 [Compound 96] | 144 |  |  |  |  |  |  |  | 1120
11 | O=C(NCc1ccc(Cl)cc1)c1nn(C(F)F)c2c1CN(CC13CC(C1)C(=O)N3)C2 [Compound 98] | 534 |  |  |  |  |  |  |  | 1400
12 | CC1c2c(c(C(=O)NCc3ccc(Cl)cc3)nn2C)CN1C(C)C1CCC(=O)N1 (centres unmarked) [Compound 110] | 2900 | 22200 |  |  |  |  |  |  | 
13 | CC(C)[C@H]1c2c(c(C(=O)NCc3ccc(Cl)cc3)nn2C)CN1C[C@H]1CCC(=O)N1 [Compound 113] | 188 | 4830 |  |  |  |  |  |  | 
14 | CC(C)[C@@H]1c2c(c(C(=O)NCc3ccc(Cl)cc3)nn2C)CN1C[C@@H]1CCC(=O)N1 [Compound 114] | 77.6 |  |  |  |  |  |  |  | 1100

The next compounds have a lower IC50 [1] than those just listed; values first:

Row | IC50 [1] [nM] | SMILES | EC50 (HCMV Strain AD169; MRC5 cells, ~72 hrs) [nM] | EC50 (HSV2; ~72 hrs) [nM] | IC50 (VZV; ~72 hrs) [nM] | EC50 (HSV-1 Strain F; ~72 hrs) [nM] | EC50 (HSV2; [2]) [nM] | IC50 (VZV; [3]) [nM] | EC50 (HSV-1 Strain F; [4]) [nM] | EC50 (HCMV Strain AD169; [5]) [nM]
15 | 33.8 | O=C1CC[C@@H](CN2Cc3c(C(=O)NCc4ccc(Cl)cc4)nn(C4CCOC4)c3C2)N1 (single isomer, unassigned) [Compound 44] | 1100 | 2950 | 2370 | 2500 |  |  |  | 
16 | 23 | CCC1c2c(c(C(=O)NCc3ccc(Cl)cc3)nn2C)CN1C[C@H]1CCC(=O)N1 (single isomer, unassigned) [Compound 105] | 479 | 274 | 289 | 335 |  |  |  | 
17 | 22.7 | Cc1cnc(-n2nc(C(=O)NCc3ccc(Cl)cc3)c3c2CN(C[C@H]2CCC(=O)N2)C3)s1 [Compound 11] |  |  |  |  | 50.6 | 170 | 172 | 263
18 | 20.9 | Cc1nc(-n2nc(C(=O)NCc3ccc(Cl)cc3)c3c2CN(C[C@H]2CCC(=O)N2)C3)sc1C [Compound 10] |  |  |  |  | 124 | 172 | 189 | 434
19 | 18.5 | O=C1CC[C@H](CN2Cc3c(C(=O)NCc4ccc(Cl)cc4)nn(-c4ncc5cnccn45)c3C2)N1 [Compound 8] | 678 | 226 | 479 | 299 |  |  |  | 
20 | 17.4 | CCC1c2c(c(C(=O)NCc3ccc(Cl)cc3)nn2C)CN1C[C@@H]1CCC(=O)N1 (single isomer, unassigned) [Compound 103] | 157 | 63 | 104 | 172 |  |  |  | 
21 | 11.2 | CC(C1CC(F)C(=O)N1)N1Cc2c(C(=O)NCc3ccc(Cl)cc3)nn(C)c2C1 (single isomer, unassigned) [Compound 73] |  |  |  |  | 464 | 534 | 614 | 134
22 | 9.82 | O=C1CC[C@H](CN2Cc3c(C(=O)NCc4ccc(Cl)cc4)nn(-c4nccs4)c3C2)N1 [Compound 7] |  |  |  |  | 86.6 | 190 | 118 | 142
23 | 9.81 | CC(C1CCC(=O)N1)N1Cc2c(C(=O)NCc3ccc(Cl)cc3)nn(C)c2C1 (single isomer, unassigned) [Compound 2] | 176 | 119 | 182 | 270 |  |  |  | 
24 | 5.3 | CC([C@@H]1CCC(=O)N1)N1Cc2c(C(=O)NCc3ccc(Cl)cc3)nn(-c3nccs3)c2C1 (single isomer, unassigned) [Compound 5] | 392 | 248 | 405 | 248 |  |  |  | 
